# In patent US20070270484A1, “3'-N-Substituted-3-O-Substituted Erythronolide a Derivatives” (priority 2003, published 2007):
# Tests used:
# S. pneum 1256 (erm) = experiment: microbe, parasite or virus in culture; assay type: cell-based, streptococcus pneumoniae; details: agar dilution, 18-24 hours, 35±2° C., 5% CO2; erm: ribosomal modification (mutation) erm genes
# Procedure: (§1) Drug dilutions and the agar plates are prepared by NCCLS method. Inoculum is prepared by direct colony suspensions in normal saline and adjusted to 0.5 McFarland turbidity and subsequently diluted as per NCCLS guidelines in order to obtain 10^4 CFU/spot. CFU/ml of a few randomly selected cultures is performed. The cultures are replicated on the agar plates using replicator (Denley's multipoint). The plates are incubated at 35±2° C. and in 5% CO2 atmosphere (for respiratory and Haemophilus strains) for 18-24 hours at 35±2° C. Minimum inhibitory concentrations (MIC) are determined after 18-24 hours. Q. C. strains are also included in each run of the study. The cation content of Mueller Hinton agar is checked by performing disk […] of 10 μg gentamicin disk against Pseudomonas aeroginosa ATCC 27853. The zone of inhibition should fall between 16-21 mm. The concentration of drug at which there is complete disappearance of growth spot or formation of less than 10 colonies per spot is considered as MIC.
# S. pneum 1275 (erm) = experiment: microbe, parasite or virus in culture; assay type: cell-based, streptococcus pneumoniae; details: for Minimum Inhibitory Concentrations, S. pneum 1275 (erm): agar dilution, 18-24 hours, 35±2° C., 5% CO2, erm: ribosomal modification (mutation) erm genes
# Procedure: as §1
# S. pneum 1294 (mef) = experiment: microbe, parasite or virus in culture; assay type: cell-based, streptococcus pneumoniae; details: agar dilution, 18-24 hours, 35±2° C., 5% CO2; mef: efflux pump mef genes
# Procedure: as §1
# S. pneum AB 14 (erm) = experiment: microbe, parasite or virus in culture; assay type: cell-based, streptococcus pneumoniae; details: agar dilution, 18-24 hours, 35±2° C., 5% CO2; erm: ribosomal modification (mutation) erm genes
# Procedure: as §1
# S. pneum AB 29 (erm) = experiment: microbe, parasite or virus in culture; assay type: cell-based, streptococcus pneumoniae; details: for Minimum Inhibitory Concentrations, S. pneum AB 29 (erm): agar dilution, 18-24 hours, 35±2° C., 5% CO2, erm: ribosomal modification (mutation) erm genes
# Procedure: as §1
# S. pneum AB 30 (erm) = experiment: microbe, parasite or virus in culture; assay type: cell-based, streptococcus pneumoniae; details: for Minimum Inhibitory Concentrations, S. pneum AB 30 (erm): agar dilution, 18-24 hours, 35±2° C., 5% CO2, erm: ribosomal modification (mutation) erm genes
# Procedure: as §1
# S. pneum 1251 (mef) = experiment: MIC, agar incorporation method (NCCLS agar dilution method); assay type: cell-based, streptococcus pneumoniae; details: 18-24 hours, 35±2° C., 5% CO2, mef: efflux pump mef genes
# Procedure: as §1
# S. pneum AB 34 (mef) = experiment: as above; assay type: cell-based, streptococcus pneumoniae; details: 18-24 hours, 35±2° C., 5% CO2, mef: efflux pump mef genes
# Procedure: as §1
# S. pneum ATCC 49619 = experiment: as above; assay type: cell-based, streptococcus pneumoniae; details: 35±2° C.; for Minimum Inhibitory Concentrations, S. pneum ATCC 49619: 18-24 hours, 5% CO2
# Procedure: as §1
# S. pneum ATCC 6303 = experiment: as above; assay type: cell-based, streptococcus pneumoniae; details: 35±2° C.; for Minimum Inhibitory Concentrations, S. pneum ATCC 6303: 18-24 hours, 5% CO2
# Procedure: as §1
# S. pneum CS 1687 (mef) = experiment: as above; assay type: cell-based, streptococcus pneumoniae; details: 18-24 hours, 35±2° C., 5% CO2, mef: efflux pump mef genes
# Procedure: as §1
# MoraXella MI = experiment: as above; assay type: cell-based; details: 18-24 hours, 35±2° C.
# Procedure: as §1
# H. inflenza ATCC 49247 = experiment: as above; assay type: cell-based, Haemophilus influenzae; details: for Minimum Inhibitory Concentrations, H. inflenza ATCC 49247: agar dilution, 18-24 hours, 35±2° C., 5% CO2
# Procedure: Minimum inhibitory concentrations (μg/ml) were obtained for representative compounds of the invention, which are given in Table 2.
# as §1
Compound,"Minimum Inhibitory Concentrations, S. pneum 1256 (erm) (S. pneum 1256 (erm)) [µg/mL]","Minimum Inhibitory Concentrations, S. pneum 1275 (erm) (S. pneum 1275 (erm)) [µg/mL]","Minimum Inhibitory Concentrations, S. pneum 1294 (mef) (S. pneum 1294 (mef)) [µg/mL]","Minimum Inhibitory Concentrations, S. pneum AB 14 (erm) (S. pneum AB 14 (erm)) [µg/mL]","Minimum Inhibitory Concentrations, S. pneum AB 29 (erm) (S. pneum AB 29 (erm)) [µg/mL]","Minimum Inhibitory Concentrations, S. pneum AB 30 (erm) (S. pneum AB 30 (erm)) [µg/mL]","Minimum Inhibitory Concentrations, S. pneum 1251 (mef) (S. pneum 1251 (mef)) [µg/mL]","Minimum Inhibitory Concentrations, S. pneum AB 34 (mef) (S. pneum AB 34 (mef)) [µg/mL]","Minimum Inhibitory Concentrations, S. pneum ATCC 49619 (S. pneum ATCC 49619) [µg/mL]","Minimum Inhibitory Concentrations, S. pneum ATCC 6303 (S. pneum ATCC 6303) [µg/mL]","Minimum Inhibitory Concentrations, S. pneum CS 1687 (mef) (S. pneum CS 1687 (mef)) [µg/mL]","Minimum Inhibitory Concentrations, MoraXella MI (MoraXella MI) [µg/mL]","Minimum Inhibitory Concentrations, H. inflenza ATCC 49247 (H. inflenza ATCC 49247) [µg/mL]",also measured
3-O-(2-Fluorophenyl)acetyl-5-O-(3′-N-desmethyl-3′-N-allyl)desosaminyl-6-O-methyl erythronolide A [Compound No. 23],>16,>16,2,>16,1,>16,2,>16,2,2,2,16,>16,
3-O-(2-Fluorophenyl)acetyl-5-O-(3′-N-desmethyl-3′-N-propargyl)desosaminyl-6-O-methyl erythronolide A [Compound No. 21],>16,>16,2,>16,>16,>16,0.25,>16,>16,0.5,0.5,0.25,>16,
3-O-(2-Pyridyl)acetyl-5-O-(3′-N-desmethyl-3′-N-cyclopropylmethyl)desosaminyl-6-O-methyl erythronolide A [Compound No. 50],>16,>16,2,>16,0.5,>16,0.5,>16,0.5,0.5,1,2,>16,
3-O-(3-Fluorophenyl)acetyl-5-O-(3′-N-desmethyl-3′-N-allyl)desosaminyl-6-O-methyl erythronolide A [Compound No. 19],>16,>16,4,>16,2,>16,2,16,2,2,2,16,,
"CCC1OC(=O)C(C)C(OC(=O)Cc2ccc(F)cc2)C(C)C(OC2OC(C)CC(N(C)Cc3ccc([N+](=O)[O-])cc3)C2O)C(C)(OC)CC(C)C(=O)C(C)C(O)C1(C)O (stereo not shown) [Compound No. 24, 3-O-(4-Fluorophenyl)acetyl-5-O-(3′-N-desmethyl-3′-N-(4-nitro)benzyl)desosaminyl-6-O-methyl erythronolide A]",>16,>16,2,8,>16,>16,1,>16,0.5,0.5,0.5,2,,
"CCC1OC(=O)C(C)C(OC(=O)Cc2ccc3ccccc3c2)C(C)C(OC2OC(C)CC(N(C)Cc3ccccc3)C2O)C(C)(OC)CC(C)C(=O)C(C)C(O)C1(C)O (stereo not shown) [Compound No. 73, 3-O-(2-Naphthyl)acetyl-5-O-(3′-N-desmethyl-3′-N-benzyl) desosaminyl-6-O-methyl erythronolide A]",>16,>16,>16,>16,>16,>16,2,>16,2,1,2,16,,
"CCC1OC(=O)C(C)C(OC(=O)Cc2ccc(F)cc2F)C(C)C(OC2OC(C)CC(N(C)Cc3ccccc3)C2O)C(C)(OC)CC(C)C(=O)C(C)C(O)C1(C)O (stereo not shown) [Compound No. 74, 3-O-(2,4-Difluorophenyl)acetyl-5-O-(3′-N-desmethyl-3′-N-benzyl) desosaminyl-6-O-methyl erythronolide A]",>16,>16,>16,16,>16,>16,>16,>16,>16,8,>16,>16,,
"CC[C@H]1OC(=O)[C@H](C)C(=O)[C@H](C)[C@@H](O[C@@H]2O[C@H](C)C[C@H](N(C)C)[C@H]2O)[C@](C)(OC)C[C@@H](C)C(=O)[C@H](C)[C@H]2N(CCCCn3cnc(-c4cccnc4)c3)C(=O)O[C@]12C [T, Telithromycin, reference compound]",,,,,,,,,,,,,,"MIC (S. pneum 1275 (erm); Streptococcus pneumoniae, read-out: Minimum Inhibitory Concentrations, S. pneum 1275 (erm)): 0.008 µg/mL; MIC (S. pneum AB 29 (erm); Streptococcus pneumoniae, read-out: Minimum Inhibitory Concentrations, S. pneum AB 29 (erm)): 0.25 µg/mL; MIC (S. pneum AB 30 (erm); Streptococcus pneumoniae, read-out: Minimum Inhibitory Concentrations, S. pneum AB 30 (erm)): 0.25 µg/mL; MIC (S. pneum 1251 (mef); Streptococcus pneumoniae, read-out: Minimum Inhibitory Concentrations, S. pneum 1251 (mef)): 0.5 µg/mL; MIC (S. pneum AB 34 (mef); Streptococcus pneumoniae, read-out: Minimum Inhibitory Concentrations, S. pneum AB 34 (mef)): 0.125 µg/mL; MIC (S. pneum ATCC 49619; Streptococcus pneumoniae, ATCC49619, 18-24 hours, 5% CO2, read-out: Minimum Inhibitory Concentrations, S. pneum ATCC 49619): 0.008 µg/mL; MIC (S. pneum ATCC 6303; Streptococcus pneumoniae, ATCC6303, 18-24 hours, 5% CO2, read-out: Minimum Inhibitory Concentrations, S. pneum ATCC 6303): 0.015 µg/mL; MIC (S. pneum CS 1687 (mef); Streptococcus pneumoniae, read-out: Minimum Inhibitory Concentrations, S. pneum CS 1687 (mef)): 0.125 µg/mL; MIC (MoraXella MI; Moraxella, read-out: Minimum Inhibitory Concentrations, MoraXella MI): 0.03 µg/mL; MIC (H. inflenza ATCC 49247; Haemophilus influenzae, ATCC49247, read-out: Minimum Inhibitory Concentrations, H. inflenza ATCC 49247): 2 µg/mL"
